Test results from ChEMBL document CHEMBL4665744, “Diverse Types of Diterpenoids with an Aromatized C Ring from the Twigs of Podocarpus imbricatus” (J Nat Prod, 2020).
Calls of active or inactive are those of the source. The calls are words filed in the database; no cut-off is given here.

Columns and labels:
[1] = test system: Zika virus; assay: Antiviral activity against Zika virus; assay type: functional, organism-based
[2] = Cytotoxicity activity against African green monkey Vero cells assessed as reduction in cell viability by MTT assay; assay type: cell-based; settings: chlorocebus sabaeus

Row | SMILES | Activity [1] | further results
1 | C[C@H](CO)c1cc2c(cc1O)[C@@]1(C)CCC[C@](C)(C(=O)O)[C@@H]1CC2 | inactive | 
2 | CC(C)c1cc2c(cc1O)C[C@@H](O)[C@H]1[C@](C)(CO)CCC[C@]21C | inactive | 
3 | COc1c(C)c2c(c(O)c1C/C=C(\C)CCC(=O)O)C(=O)OC2 [MYCOPHENOLIC ACID] |  | CC50 [2]: 18.7 µM
4 | CC(C)c1c(O)ccc2c1CC[C@H]1C(C)(C)CC[C@@H](O)[C@]21C | inactive | 
5 | CC(C)c1cc2c(cc1O)[C@@H](O)[C@@H](O)[C@H]1[C@](C)(CO)CCC[C@]21C |  | IC50 [1]: 2.5 µM
